This note sets out measurements from patent publication US20230303581A1, “ORALLY BIOAVAILABLE, BRAIN-PENETRANT COMPOUND WITH SELECTIVITY FOR THE CANNABINOID TYPE 2 RECEPTOR WITH POTENTIAL USE TOWARDS VISCERAL PAIN MANAGEMENT AND NEURODEGENERATIVE DISORDERS” (University of Mississippi, priority 2022, published 2023).

Data set [1] has as its target human CB2 receptors (Homo sapiens (Human), UniProt P34972). The data set is described as follows: Cannabinoid receptor binding (displacement) assay, CB2. The settings on record: for Displacement of [3H]CP-55,940 from CB2: 10 μM compound. How it is done: (§1) The affinities of the compounds for CB1 and CB2 receptors were examined using displacement assays, as previously described. Briefly, cell membranes from CHO cells expressing human CB1 or human CB2 receptors were isolated using differential centrifugation. Test compounds reconstituted in DMSO and were incubated with the isolated membrane in binding buffer (50 mM Tris-HCl, 1 mM EDTA, 3 mM MgCl2, 5 mg/mL BSA, pH 7.4) along with 2.5 nM [^3H]CP-55,940. Total binding was assessed in the presence of equal concentration of DMSO, while non-specific binding was determined in the presence of 10 μM CP-55,940, and background binding was determined in wells lacking membrane. Following incubation at 30° C. for 60 min, the binding reactions were terminated by vacuum filtration through Whatman GF/C filters. The filters were then washed twice with ice-cold buffer (50 mM Tris-HCl, 1 mg/mL BSA). Liquid scintillation cocktail was added to each well and the total tritiated counts per minute were analyzed using a TopCount scintillation counter. Background counts were subtracted from all wells and the percent displacement from total binding was calculated.
(§2) The compounds were initially screened at 10 μM concentrations. If they produced at least ±30% displacement of the radioligand, then full competition curves were constructed. Ki values were calculated using GraphPad Prism (San Diego, CA, USA) and Kd values determined using a 1 site fit. All assays were run in technical and biological replicates so that the n=5-6. PK Evaluation in CD-1 Mice
(§3) The CB1/CB2 receptor binding activities of analogs 4a-4q were assessed via radioactivity-based competitive binding assays using [^3H]CP55,940, an extensively studied radioligand that is frequently used for cannabinoid assays. […] In preliminary screening, all 17 synthetic PBD compounds (4a-4q) were subjected to in vitro CB1 and CB2 binding assays at a single concentration of 10 μM. […] Therefore, the most promising ligands (4k and 4q) were selected for assessment in full competition curves against CB1 and CB2.

Data set [2] deals with human CB1 receptors (Homo sapiens (Human), UniProt P21554). The data set is described as follows: Cannabinoid receptor binding (displacement) assay, CB1. The settings on record: 10 μM compound. The protocol:
as §1, §2, §3

Data set [3] deals with mice. Nature of the data set: Conditioned place preference test. In kind it is in vivo. The settings on record: FIG. 4. From the text: Conditioned place preference testing is used to assess a compound's rewarding effects in order to gauge potential abuse liability. Mice are “conditioned” to associate distinctly lighted/colored/textured chambers with a rewarding drug (e.g., opioid) or no drug. If the mice sense a rewarding effect of the drug, they will prefer to occupy the chamber associated with that drug. FIG. 4 presents the results of a conditioned place preference test for 3 groups of mice (i.e., vehicle, oxycodone treated, and compound 4k treated).

Data set [4] has as its system mice. The data set is described as follows: Acetic acid-induced writhing test. In kind it is in vivo. The settings on record: oxycodone 3 mg/kg, compound 4k 5 mg/kg, versus vehicle. From the text: Acetic acid-induced writhing is widely used for assessing analgesic effects against inflammatory pain of peripheral origin.

human CB2 receptors, sequence (P34972 whole entry): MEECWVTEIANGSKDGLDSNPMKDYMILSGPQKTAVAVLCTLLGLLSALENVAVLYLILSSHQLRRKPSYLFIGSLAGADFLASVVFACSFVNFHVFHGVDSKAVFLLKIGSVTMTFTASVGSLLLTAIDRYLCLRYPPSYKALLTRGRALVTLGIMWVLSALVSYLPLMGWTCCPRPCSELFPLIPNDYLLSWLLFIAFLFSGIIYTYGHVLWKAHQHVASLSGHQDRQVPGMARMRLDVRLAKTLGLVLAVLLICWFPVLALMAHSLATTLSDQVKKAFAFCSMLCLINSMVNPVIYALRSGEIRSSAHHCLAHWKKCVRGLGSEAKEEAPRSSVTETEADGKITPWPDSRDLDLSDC
human CB1 receptors, sequence (P21554 whole entry): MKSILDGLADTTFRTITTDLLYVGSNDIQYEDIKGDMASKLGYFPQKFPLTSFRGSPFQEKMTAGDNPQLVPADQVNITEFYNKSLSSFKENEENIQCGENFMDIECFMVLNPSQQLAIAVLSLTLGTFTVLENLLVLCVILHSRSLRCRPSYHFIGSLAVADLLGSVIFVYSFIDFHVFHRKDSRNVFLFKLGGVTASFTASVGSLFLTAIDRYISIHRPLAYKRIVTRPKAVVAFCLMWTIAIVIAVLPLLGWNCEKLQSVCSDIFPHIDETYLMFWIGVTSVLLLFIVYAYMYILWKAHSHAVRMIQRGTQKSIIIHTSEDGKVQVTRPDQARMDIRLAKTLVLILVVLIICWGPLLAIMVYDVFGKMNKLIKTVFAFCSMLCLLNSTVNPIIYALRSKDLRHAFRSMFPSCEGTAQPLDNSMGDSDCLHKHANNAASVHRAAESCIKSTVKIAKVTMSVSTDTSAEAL

For `O=C1c2ccccc2N/C(=N/N=C/C23CC4CC(CC(C4)C2)C3)[C@@H]2CCCN12` [Compound 4q], the affinity in data set [1] (CB2, full competition curves) corresponds to a Ki of 137 nM.

Regarding `Nc1ncc(/C=N/N=C2/Nc3ccccc3C(=O)N3CCC[C@@H]23)s1` [Compound 4f], the “Displacement of [3H]CP-55,940 from CB2” value in data set [1] was determined as 3.72%. The “Displacement of [3H]CP-55,940 from CB1” value in data set [2] turned out to be 1.75%.

For the compound `O=C1c2ccccc2N/C(=N/N=C/c2ccc[nH]2)[C@@H]2CCCN12` [Compound 4a], in data set [1], the “Displacement of [3H]CP-55,940 from CB2” value is listed as −12.50%. Further, the “Displacement of [3H]CP-55,940 from CB1” value in data set [2] is −3.09%.

Regarding “(S,E)-11-[(Benzo[b]thiophen-3-ylmethylene)hydrazono]-7-bromo-pyrrolo[2,1-c][1,4]Benzodiazepine [Compound 4j]”, the “Displacement of [3H]CP-55,940 from CB2” value in data set [1] is listed as 65.24%. In addition, the “Displacement of [3H]CP-55,940 from CB1” value in data set [2] was found to be 66.81%.

As to “(S,E)-11-[(Benzo[d]thiazol-2-ylmethylene)hydrazono]-pyrrolo[2,1-c][1,4] Benzodiazepine [Compound 4n]”, the “Displacement of [3H]CP-55,940 from CB2” value in data set [1] is reported as 43.34%. For the same compound, in data set [2], the “Displacement of [3H]CP-55,940 from CB1” value turned out to be 44.14%.

As for “(S,E)-11-[2-(Benzo[b]thiophenylmethylene)hydrazono]-pyrrolo[2,1-c][1,4]Benzodiazepine [Compound 4h]”, the “Displacement of [3H]CP-55,940 from CB2” value in data set [1] came out at 61.05%. In addition, the “Displacement of [3H]CP-55,940 from CB1” value in data set [2] amounted to 36.88%.

In the case of `Cc1c(/C=N/N=C2/Nc3ccccc3C(=O)N3CCC[C@@H]23)sc2ccccc12` [Compound 4l], the “Displacement of [3H]CP-55,940 from CB2” value in data set [1] is reported as 51.73%. The “Displacement of [3H]CP-55,940 from CB1” value in data set [2] turned out to be 77.17%.

Take `Cn1cc(/C=N/N=C2/Nc3ccccc3C(=O)N3CCC[C@@H]23)c2ccccc21` [Compound 4o]: the “Displacement of [3H]CP-55,940 from CB2” value in data set [1] is on record as 1.01%. In addition, the “Displacement of [3H]CP-55,940 from CB1” value in data set [2] turned out to be 5.09%.

“(S,E)-11-[(Thiazol-5-ylmethylene)hydrazono]-pyrrolo[2,1-c][1,4] Benzodiazepine [Compound 4c]”: the “Displacement of [3H]CP-55,940 from CB2” value in data set [1] worked out at 3.06%. The “Displacement of [3H]CP-55,940 from CB1” value in data set [2] worked out at 0.25%.

`O=C1c2ccccc2N/C(=N/N=C/c2sc(Cl)nc2Cl)[C@@H]2CCCN12` [Compound 4g]: in data set [1], the “Displacement of [3H]CP-55,940 from CB2” value was determined as 29.27%. For the same compound, the “Displacement of [3H]CP-55,940 from CB1” value in data set [2] is 24.19%.

“(S,E)-11-[(5-Methoxy-1H-indol-3-yl)methylene)hydrazono]-pyrrolo[2,1-c][1,4]Benzodiazepine [Compound 4p]”: the “Displacement of [3H]CP-55,940 from CB2” value in data set [1] was −29.47%. Also, the “Displacement of [3H]CP-55,940 from CB1” value in data set [2] is listed as −27.20%.

For `COc1ccc2c3c1O[C@H]1C(=O)CC[C@@]4(O)[C@@H](C2)N(C)CC[C@]314` [oxycodone, reference compound], the “place preference (rewarding effect, abuse liability)” value in data set [3] was “clear place preference”. Also, the “writhing over 30 minutes” value in data set [4] was “attenuate writhing”.

Turning to `Cc1ncc(/C=N/N=C2/Nc3ccccc3C(=O)N3CCC[C@@H]23)s1` [Compound 4d], the “Displacement of [3H]CP-55,940 from CB2” value in data set [1] was −33.65%. Also, the “Displacement of [3H]CP-55,940 from CB1” value in data set [2] is reported as −27.99%.

Turning to `Cc1ncsc1/C=N/N=C1/Nc2ccccc2C(=O)N2CCC[C@@H]12` [Compound 4e], the “Displacement of [3H]CP-55,940 from CB2” value in data set [1] is 19.86%. Also, the “Displacement of [3H]CP-55,940 from CB1” value in data set [2] was 21.88%.

For `Cn1ccnc1/C=N/N=C1/Nc2ccccc2C(=O)N2CCC[C@@H]12` [Compound 4b], in data set [1], the “Displacement of [3H]CP-55,940 from CB2” value is reported as −14.48%. Besides, the “Displacement of [3H]CP-55,940 from CB1” value in data set [2] was −13.99%.

On to `O=C1c2ccccc2N/C(=N/N=C/c2sc3ccccc3c2Cl)[C@@H]2CCCN12` [Compound 4m], for which the “Displacement of [3H]CP-55,940 from CB2” value in data set [1] is listed as 50.05%. The “Displacement of [3H]CP-55,940 from CB1” value in data set [2] amounted to 5.22%.

In the case of “(S,E)-11-[(Benzo[b]thiophen-2-ylmethylene)hydrazono]-7-bromo-pyrrolo[2,1-c][1,4]Benzodiazepine [Compound 4i]”, the “Displacement of [3H]CP-55,940 from CB2” value in data set [1] is recorded as 36.39%. Further, in data set [2], the “Displacement of [3H]CP-55,940 from CB1” value is 49.82%.
